Data: patent US4751221A, “2-fluoro-arabinofuranosyl purine nucleosides” (Sloan-Kettering Institute for Cancer Research, priority 1985, dated 1988)

Assays:
P-813 cells = assay: Cytotoxicity against P-813 (text: P-815) mouse leukemia cells; type: cell-based; conditions: for IC50: P815, mouse leukemia cells P-813, read-out: ID50 P-813; for activity against mouse leukemic cells P-815: in words
NL (Namalva) cells = assay: Cytotoxicity against NL (Namalva) human tumor cells; type: cell-based; conditions: for IC50: NAMALVA, human cells NL, read-out: ID50 NL; for inhibitory activity against human tumor cell line Namalva: in words
CCRF-CEM cells = assay: Cytotoxicity against CCRF-CEM human tumor cells; type: cell-based; conditions: for IC50: human cells CCRF-CEM, read-out: ID50 CCRFCEM; for inhibitory activity against human tumor cell line CCRF-CEM: in words
L-1210 cells = assay: Cytotoxicity against L-1210 mouse leukemia cells; type: cell-based; conditions: for activity against mouse leukemic cells L-1210: in words
[1] = system: Leishmania tropica promastigotes; assay: Growth inhibition of Leishmania tropica promastigotes; type: cell-based; conditions: 50% growth inhibition, read-out: inhibits the growth of Leishmania tropica promastigotes by 50% at the concentration
[2] = system: L-1210 mouse leukemic cells; conditions: in tissue culture; Wilson et al., J. Med. Chem., 13, 369 (1970); cited from earlier work

Row | SMILES | IC50 (P-813 cells) [µM] | IC50 (NL (Namalva) cells) [µM] | IC50 (CCRF-CEM cells) [µM] | IC50 (L-1210 cells; L1210, mouse leukemia cells L-1210, read-out: ID50 L-1210) [µM] | cytotoxicity against L-1210 cells (L-1210 cells; at the concentration of 100 μM) | IC50 [1] [µM] | activity against mouse leukemic cells L-1210 (L-1210 cells) | activity against mouse leukemic cells P-815 (P-813 cells) | inhibitory activity against human tumor cell line Namalva (NL (Namalva) cells) | inhibitory activity against human tumor cell line CCRF-CEM (CCRF-CEM cells) | growth-inhibitory effect against L-1210 mouse leukemic cells [2]
1 | Nc1ncnc2c1ncn2[C@@H]1O[C@H](CO)[C@@H](O)[C@@H]1F [X = NH2, Y = H, 9-(2'-deoxy-2'-fluoro-β-D-arabinofuranosyl)adenine] | > 30 | 3 | 0.67 |  |  |  |  |  |  |  | 
2 | O=c1[nH]cnc2c1ncn2[C@@H]1O[C@H](CO)[C@@H](O)[C@@H]1F [9-(2'-deoxy-2'-fluoro-β-D-arabinofuranosyl)hypoxanthin] | > 30 | ~30 | 15.1 | > 30 | does not exhibit any cytotoxicity | 0.6 |  |  |  |  | 
3 | Nc1nc2c(ncn2[C@@H]2O[C@H](CO)[C@@H](O)[C@@H]2F)c(=O)[nH]1 [9-(2'-deoxy-2'-fluoro-β-D-arabinofuranosyl)-guanine] | 5.4 | 0.7 | < 0.1 |  |  |  | modest | modest | potent inhibitory activity | potent inhibitory activity | 
4 | OC[C@H]1O[C@@H](n2cnc3c(S)ncnc32)[C@@H](F)[C@@H]1O [X = SH, Y = H, 9-(2'-deoxy-2'-fluoro-β-D-arabinofuranosyl)-6-thiopurine] | 10 | 2 | 10 |  |  |  |  |  |  |  | 
5 | Nc1nc(S)c2ncn([C@@H]3O[C@H](CO)[C@@H](O)[C@@H]3F)c2n1 [9-(2'-deoxy-2'-fluoro-β-D-arabinofuranosyl)-2-amino-6-thiopurine] | 4.6 | 1.2 | 0.1 |  |  |  | modest | modest | potent inhibitory activity | potent inhibitory activity | 
6 | Nc1ccn([C@@H]2O[C@H](CO)[C@@H](O)[C@@H]2F)c(=O)n1 [FAC, 1-(2'-deoxy-2'-fluoro-β-D-arabinofuranosyl)cytosine] |  |  |  |  |  |  |  |  |  |  | comparable with that of 1-(β-D-arabinofuranosyl)cytosine (ara-C) and 1-(β-D-arabinofuranosyl)-5-fluorocytosine (ara-FC)
